From publication PMC2851739 (General and comparative endocrinology, 2009)
Ends that are not written are not given here.

What follows are substances tested on AeaETHRs (assay: flash luminescence). Conditions: peptides with related sequences.
Assay type: cell-based, Aedes aegypti

| Substance | activity when tested at 10 μM |
| --- | --- |
| FMRFamide | inactive |
| corazonin (QTFQYSRGWTN; ends and bridges not checked; UniProt Q26377 20-30, looked up) | inactive |
| ghrelin (GSSFLSPEHQRVQQRKESKKPPAKLQPR; ends and bridges not checked; UniProt Q9UBU3 24-51, looked up) | inactive |
